Test results taken from patent US20250179589A1, “SYNTHETIC LETHALITY AND THE TREATMENT OF CANCER” (PACYLEX PHARMACEUTICALS INC., priority 2012, published 2025).

Legend:
[1] = Intrinsic clearance Cli, human; type: in vitro ADME
Fu plasma, human = type: in vitro ADME
[2] = system: BL-2 (Burkitt's lymphoma) cells; experiment: Trypan blue exclusion cell viability assay; type: cell-based, human
Procedure: (§1) Cell viability assay. B and T cell viability was measured using the trypan blue exclusion method. Cells were grown in confluency conditions (2×10^6 cells/mL maximum) assuring the minimum basal apoptosis. […] Cell viability was quantified using the TC10™ automated cell counter (Biorad).
(§2) The drugs were dissolved in DMSO to make 100× stock solutions for each concentration tested, so that the final volume of DMSO in each well was 1%.
(§3) Cell viability was then quantified using the TC10™ automated cell counter (Biorad).

[3] = system: Ramos (Burkitt's lymphoma) cells; experiment: Trypan blue exclusion cell viability assay; type: cell-based, human; conditions: Homo sapiens, 72 h
Procedure: as §1, §2, §3

CYP450 2C19 = CYP450 2C19 (Homo sapiens, UniProt P33261); experiment: CYP450 inhibition; type: in vitro ADME; conditions: 2C19, at 1 uM
Chain of CYP450 2C19 (P33261 whole entry): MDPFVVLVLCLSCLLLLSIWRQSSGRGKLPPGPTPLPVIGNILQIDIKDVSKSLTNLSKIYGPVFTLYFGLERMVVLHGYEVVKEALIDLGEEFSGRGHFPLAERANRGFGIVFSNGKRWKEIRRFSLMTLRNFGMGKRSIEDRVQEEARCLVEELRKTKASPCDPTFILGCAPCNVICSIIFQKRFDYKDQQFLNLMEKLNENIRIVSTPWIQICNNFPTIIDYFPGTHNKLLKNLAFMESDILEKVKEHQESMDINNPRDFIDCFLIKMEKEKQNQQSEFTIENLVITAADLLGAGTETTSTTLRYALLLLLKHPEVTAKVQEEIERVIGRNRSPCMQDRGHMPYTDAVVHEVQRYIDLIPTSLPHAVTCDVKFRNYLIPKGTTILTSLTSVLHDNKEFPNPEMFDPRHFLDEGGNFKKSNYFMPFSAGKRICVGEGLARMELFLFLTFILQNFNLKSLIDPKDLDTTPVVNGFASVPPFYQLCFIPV

Caco-2 permeability Papp = type: in vitro ADME; conditions: human
[4] = Intrinsic clearance Cli, mouse; type: in vitro ADME
[5] = Mouse IV pharmacokinetics; type: in vivo; conditions: whole blood, [ ] = range; for Vd: read-out: Vss
[6] = Mouse PO pharmacokinetics 10 mg/kg; conditions: in vivo, PO 10 mg/kg, [ ] = range
Pgp = target: T1, Pgp (Homo sapiens, UniProt P08183); experiment: Pgp efflux, Caco-2; type: in vitro ADME
T1 construct: endogenous in cells; host or cells: Caco-2
T1 sequence (P08183 whole entry): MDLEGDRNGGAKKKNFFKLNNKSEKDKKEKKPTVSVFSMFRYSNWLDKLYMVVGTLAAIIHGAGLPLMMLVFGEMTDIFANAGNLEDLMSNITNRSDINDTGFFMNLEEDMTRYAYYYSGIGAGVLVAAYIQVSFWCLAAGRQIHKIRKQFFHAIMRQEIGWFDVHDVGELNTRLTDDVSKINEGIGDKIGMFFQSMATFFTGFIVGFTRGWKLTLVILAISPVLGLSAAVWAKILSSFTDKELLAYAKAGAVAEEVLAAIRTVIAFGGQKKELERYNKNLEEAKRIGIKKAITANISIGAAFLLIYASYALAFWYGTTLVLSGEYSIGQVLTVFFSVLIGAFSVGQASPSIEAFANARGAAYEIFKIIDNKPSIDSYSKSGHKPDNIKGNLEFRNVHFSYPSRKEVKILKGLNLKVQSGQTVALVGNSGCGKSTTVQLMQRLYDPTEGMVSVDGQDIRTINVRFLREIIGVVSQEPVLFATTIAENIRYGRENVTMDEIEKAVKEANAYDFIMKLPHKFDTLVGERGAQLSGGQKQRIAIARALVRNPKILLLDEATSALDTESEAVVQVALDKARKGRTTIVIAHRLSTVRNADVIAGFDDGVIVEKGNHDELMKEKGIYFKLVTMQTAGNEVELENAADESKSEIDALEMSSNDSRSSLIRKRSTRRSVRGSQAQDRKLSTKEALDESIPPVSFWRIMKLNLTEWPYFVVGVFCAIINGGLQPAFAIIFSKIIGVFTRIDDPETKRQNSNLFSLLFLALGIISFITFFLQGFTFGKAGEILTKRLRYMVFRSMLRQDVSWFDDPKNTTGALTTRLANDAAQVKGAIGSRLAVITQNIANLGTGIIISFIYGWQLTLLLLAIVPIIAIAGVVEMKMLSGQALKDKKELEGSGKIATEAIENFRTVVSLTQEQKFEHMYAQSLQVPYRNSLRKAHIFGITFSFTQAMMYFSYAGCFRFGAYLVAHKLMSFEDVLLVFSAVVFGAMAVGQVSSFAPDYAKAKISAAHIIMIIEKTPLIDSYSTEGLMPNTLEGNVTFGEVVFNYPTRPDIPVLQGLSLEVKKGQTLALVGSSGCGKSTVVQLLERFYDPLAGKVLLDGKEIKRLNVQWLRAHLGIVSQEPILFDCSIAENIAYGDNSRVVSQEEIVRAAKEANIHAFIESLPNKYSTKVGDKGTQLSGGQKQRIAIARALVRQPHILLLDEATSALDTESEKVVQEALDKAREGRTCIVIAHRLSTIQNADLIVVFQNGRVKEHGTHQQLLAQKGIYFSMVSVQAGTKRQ

[7] = Intrinsic clearance Cli, rat; type: in vitro ADME
[8] = system: KMH2 (Hodgkin's lymphoma) cells; experiment: Trypan blue exclusion cell viability assay; type: cell-based; conditions: Homo sapiens, KM-H2, 72 h
Procedure: as §1
(§4) […]. The drugs were dissolved in DMSO to make 100× stock solutions for each concentration tested, so that the final volume of DMSO in each well was 1%. The viability of cells treated with these inhibitors was measured with a trypan blue exclusion assay (Hudson, 1976).
as §3

[9] = system: IM-9 ("normal" EBV immortalized B cell); experiment: Trypan blue exclusion cell viability assay; type: cell-based; conditions: Homo sapiens, IM-9 cells, 72 h
Procedure: as §1, §4, §3

Fu Brain = type: in vitro ADME
hERG = hERG (Homo sapiens, UniProt Q12809); experiment: hERG (patch clamp); type: cell-based
Chain of hERG (Q12809 whole entry): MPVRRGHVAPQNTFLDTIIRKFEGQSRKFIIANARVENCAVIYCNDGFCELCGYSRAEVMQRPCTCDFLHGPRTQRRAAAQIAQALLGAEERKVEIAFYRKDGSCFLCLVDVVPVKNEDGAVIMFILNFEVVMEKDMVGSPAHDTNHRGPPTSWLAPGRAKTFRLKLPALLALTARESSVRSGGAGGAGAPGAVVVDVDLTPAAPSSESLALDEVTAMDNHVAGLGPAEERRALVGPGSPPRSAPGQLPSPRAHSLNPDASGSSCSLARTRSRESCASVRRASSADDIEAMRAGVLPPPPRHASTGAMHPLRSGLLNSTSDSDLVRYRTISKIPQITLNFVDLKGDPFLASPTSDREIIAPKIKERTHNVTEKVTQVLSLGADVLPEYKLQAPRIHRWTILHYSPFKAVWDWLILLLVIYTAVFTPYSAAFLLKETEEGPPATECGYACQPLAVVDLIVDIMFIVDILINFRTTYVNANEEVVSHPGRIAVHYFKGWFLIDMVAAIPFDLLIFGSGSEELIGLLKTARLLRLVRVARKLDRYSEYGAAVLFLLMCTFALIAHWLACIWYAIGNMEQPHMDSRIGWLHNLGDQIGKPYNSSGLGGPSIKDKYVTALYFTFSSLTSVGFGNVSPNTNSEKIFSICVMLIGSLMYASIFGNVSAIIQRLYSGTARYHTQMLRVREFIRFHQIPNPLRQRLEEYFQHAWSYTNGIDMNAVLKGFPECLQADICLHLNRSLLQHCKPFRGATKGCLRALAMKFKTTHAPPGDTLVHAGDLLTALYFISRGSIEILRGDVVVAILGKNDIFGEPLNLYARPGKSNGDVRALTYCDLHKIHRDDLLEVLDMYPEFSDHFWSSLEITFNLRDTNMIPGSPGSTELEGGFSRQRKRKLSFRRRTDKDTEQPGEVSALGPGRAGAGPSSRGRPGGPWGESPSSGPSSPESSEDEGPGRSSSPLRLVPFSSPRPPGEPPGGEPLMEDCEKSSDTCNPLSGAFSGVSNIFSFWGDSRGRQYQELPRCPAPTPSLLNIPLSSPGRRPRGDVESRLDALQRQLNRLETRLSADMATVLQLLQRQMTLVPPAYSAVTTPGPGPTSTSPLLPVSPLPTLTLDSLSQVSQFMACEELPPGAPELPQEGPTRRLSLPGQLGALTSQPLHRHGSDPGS
B:B Ratio = type: in vivo; conditions: brain / blood
Fu plasma, mouse = type: in vitro ADME
[10] = system: KMH2 (Hodgkin's lymphoma) cells; experiment: MTS cell viability assay; type: cell-based; conditions: Homo sapiens, KM-H2, 72 h
Procedure: (§5) […]. The drugs were dissolved in DMSO to make 100× stock solutions for each concentration tested, so that the final volume of DMSO in each well was 1%. MTS [(3-(4,5-dimethylthiazol-2-yl)-5-(3-carboxymethoxyphenyl)-2-(4-sulfophenyl)-2H-tetrazolium)] assay was used to measure the cytotoxicity of the drug (Cory et al., 1991).
(§6) In FIG. 9, Panel B, DDD86481 was used to treat BL cells and control cell lines [IM9 (“normal” B lymphocyte) and KMH2 (HL cell line) that expresses both NMTs]. […]. The EC50 data are summarized as follows.

[11] = system: IM-9 ("normal" EBV immortalized B cell); experiment: MTS cell viability assay; type: cell-based; conditions: Homo sapiens
Procedure: as §5, §6

[12] = system: BL-2 (Burkitt's lymphoma) cells; experiment: MTS cell viability assay; type: cell-based, human
Procedure: as §5, §6

[13] = system: Ramos (Burkitt's lymphoma) cells; experiment: MTS cell viability assay; type: cell-based, human
Procedure: as §5, §6

[14] = system: myristoylation in IM-9 cells; experiment: Inhibition of myristoylation, alkynyl-myristate labeling and click chemistry; type: cell-based, human
Procedure: (§7) Cells were labeled with 100 to 25 μM ω-alkynyl myristic acid 30 min prior to harvesting the cells and lysed in 0.1% SDS-RIPA-HEPES buffer. Protein (50-30 μg) from the resulting cell lysates were reacted with 100 μM azido-biotin using click chemistry and processed as described previously (Yap et al., 2010). Briefly, cells were starved of fatty acids by incubating in media (RPMI or DMEM) which were supplemented with 5% dextran-coated charcoal-treated FBS (DCC-FBS) for 1 h prior to labeling. Next, ω-alkynyl-myristic acid was dissolved in DMSO to generate 25 or 100 mM stock solutions. Typically, the cellular uptake of ω-alkynyl myristic acid typically was improved with saponification and conjugation to BSA. Therefore, prior to labeling, ω-alkynyl myristic acid was saponified with 20% molar excess of potassium hydroxide at 65° C. for 15 min. Next, serum-free culture media (pre-warmed) containing 20% fatty acid-free BSA at 37° C. was added to the saponified ω-alkynyl myristic acid and incubated for an additional 15 min at 37° C.
(§8) Subsequently, cells deprived of fatty acids were washed once with warm PBS and incubated in fresh RPMI or DMEM without any supplements. Next, the appropriate volume of 20× fatty acid-BSA conjugate in serum-free media was added to the cells, to ensure that the final concentration of BSA was 1% and Q-alkynyl myristic acid was at the indicated concentration (25 μM or 100 μM) for each respective experiment. DMSO or unlabeled fatty acids conjugated to BSA were used as controls for the experiments performed. Cells were labeled with ω-alkynyl myristic acid for 30 min at 37° C. in a 5% CO2 humidified incubator prior to harvesting. Cells were harvested in 0.1% SDS-RIPA-HEPES buffer that was supplemented with 1× complete protease inhibitor (EDTA-free).
(§9) After labeling cells with ω-alkynyl myristic acid, the resulting lysates were subjected to click chemistry with azido-biotin to enable the detection of the myristoylated proteins by ECL as described previously (Yap et al., 2010). Typically, cell lysates (30-50 μg of protein) were adjusted to contain 1% SDS and incubated with 100 μM Tris-(benzyltriazolylmethyl)amine (TBTA), 1 mM CuSO4, 1 mM Tris-carboxyethylphosphine (TCEP), and 100 μM azido-biotin at 37° C. for 30 min in darkness, in order for the click reaction to proceed. Next, 10 volumes of ice-cold acetone was added to stop the click reaction and proteins were precipitated at −20° C. overnight. Subsequently, the acetone precipitated proteins were centrifuged at 16,000 g for 10 min, resuspended in 1×SDS-PAGE sample buffer with 20 mM DTT. […]
(§10) In FIG. 9 E, the minimal dose of DDD86481 required to inhibit myristoylation in IM-9, BL2 and Ramos cell lines, was determined. […]

[15] = system: myristoylation in BL2 cells; experiment: as above; type: cell-based, human
Procedure: as §7, §8, §9, §10

BL (BL2 and Ramos) cells = experiment: Induction of apoptosis, PARP-1 and caspase-3 cleavage by western blotting; type: cell-based, human; conditions: BL cell lines, 72 h
Procedure: (§11) “Normal” immortalized B lymphocytes (IM9), KMH2 (Hodgkin's lymphoma) and BL (BL2 and Ramos) cells were incubated with increasing concentrations (nM) of DDD86481 and monitored the cleavage of poly-ADP-ribose polymerase-1 (PARP-1) and caspase-3 after the 72 h time point. Western blotting was performed on cell lysates to monitor the cleavage or PARP-1 and caspase-3 as well as the presence of GAPDH as loading control (composite gels).

[16] = system: KMH2 (Hodgkin's lymphoma) cells; experiment: as above; type: cell-based, human; conditions: KMH2, 72 h
Procedure: as §11

[17] = system: "Normal" immortalized B lymphocytes (IM9); experiment: as above; type: cell-based, human; conditions: IM9, 72 h
Procedure: as §11

[18] = system: myristoylation in Ramos cells; experiment: Inhibition of myristoylation, alkynyl-myristate labeling and click chemistry; type: cell-based, human; conditions: 2 h treatment
Procedure: as §7
Subsequently, cells deprived of fatty acids were washed once with warm PBS and incubated in fresh RPMI or DMEM without any supplements. […]
as §10

Compound: Cc1nn(C)c(C)c1NS(=O)(=O)c1c(Cl)cc(-c2ccnc(N3CCNCC3)c2)cc1Cl [DDD85646]
- Cli Human [1]: 1.2 mL/min/g
- fraction unbound (Fu plasma, human): 0.176
- times more sensitive than cells expressing both NMTs ([2]; BL-2 and Ramos vs immortalized "normal" B cells or KMH2, trypan blue): 15-72 times
- EC50 ([2]; Homo sapiens, BL2, 72 h): 430 nM
- EC50 [3]: 370 nM
- CYP450 inhibition (CYP450 2C19): 2C19 (19% at 1 uM)
- Papp A→B (Caco-2 permeability Papp): 4.3 ×10⁻⁶ cm/s
- Cli Mouse [4]: 0.6 mL/min/g
- half-life [5]: 1.3 h
- Vd [5]: 0.6 L/kg
- Cmax [6]: 2690 ng/mL
- Tmax [6]: 0.25 h
- Pgp (Pgp): YES (Efflux ratio =
- Cli Rat [7]: 0.5 mL/min/g
- EC50 [8]: 29600 nM
- EC50 [9]: 7080 nM
- fraction unbound (Fu Brain): 0.068
- hERG (patch clamp) (hERG): 27.7

Compound: Cc1c(NS(=O)(=O)c2c(Cl)cc(-c3ccnc(N4CCNCC4)c3)cc2Cl)c(CC(C)C)nn1C [DDD86481]
- Kp (B:B Ratio): 0.04
- Cli Human [1]: 0.7 mL/min/g
- fraction unbound (Fu plasma, mouse): 0.067
- EC50 [10]: 12600 nM
- EC90 ([11]; IM-9, IM9 cells, calculated from FIG. 9B): 134000 nM
- EC50 ([11]; IM-9 cells, 72 h, MTS): 2200 nM
- times more sensitive than cells expressing both NMTs ([12]; BL-2 and Ramos vs immortalized "normal" B cells or KMH2, MTS): 15-72 times
- EC90 ([12]; Homo sapiens, BL2): 210 nM
- EC50 ([12]; Homo sapiens, BL2, 72 h): 58 nM
- EC90 ([13]; Homo sapiens, Ramos): 400 nM
- EC50 ([13]; Homo sapiens, Ramos, 72 h): 42 nM
- factor by which cancer cells are preferentially killed ([13]; ratios of the EC50's and EC90's, normal B cell line vs Burkitt lymphoma cell lines): > 300 fold
- inhibition of myristoylation ([14]; IM-9, 1 μM, after one hour of treatment): nearly complete inhibition of myristoylation
- minimal dose at which incorporation of alkyne-myristate label decreases ([14]; IM-9, 2 h treatment): 100 nM
- inhibition of myristoylation ([15]; BL2, 1 μM, after one hour of treatment): nearly complete inhibition of myristoylation
- minimal dose at which incorporation of alkyne-myristate label decreases ([15]; BL-2, 2 h treatment): 50 nM
- Cli Mouse [4]: <0.5 mL/min/g
- half-life [5]: 1.5 h
- Vd [5]: 0.4 L/kg
- PARP-1 and caspase-3 cleavage (BL (BL2 and Ramos) cells): occurred in a dose-dependent fashion
- PARP-1 cleavage [16]: observed at higher concentrations, although it was minimal
- PARP-1 and caspase-3 cleavage [17]: No PARP-1 or caspase-3 cleavage was observed
- Cmax [6]: 11200 ng/mL
- Tmax [6]: 2 h
- half-life [6]: 5.7 h
- Cli Rat [7]: 1.0 mL/min/g
- minimal dose at which incorporation of alkyne-myristate label decreases [18]: 50 nM
